Target: T1, PAPD5 (Homo sapiens, UniProt Q8NDF8)
T1 construct: made in house
Assay: High-throughput luminescence (KinaseGlo) RNA polyadenylation assay, ATP utilization by recombinant PAPD5
Format: biochemical
Conditions: Table 4 (entries of Table 5), ratio of luminescence with inhibitor to DMSO; for Fold-change determined at compound concentration 33 μM: 33 μM compound; for Fold-change determined at compound concentration 100 μM: 100 μM compound, higher = higher inhibition
Protocol: Optimal conditions for an in vitro RNA polyadenylation assay using recombinant PAPD5, ATP and an oligonucleotide substrate were identified. The HTS assay involved ATP utilization by PAPD5, which reads out as a decreased luminescence signal produced by luciferase (KinaseGlo, Promega, Madison, WI).
100 nl of compound dissolved in DMSO was transferred to each well of the assay plate via pin transfer. For negative control wells, DMSO alone was added. Plates were gently vortexed for 5 seconds, then incubated for 2 hours at room temperature.
After 2 hours, 5 ul of luciferase (Promega KinaseGlo, Madison, WI) was added using a MultiDrop Combi (Thermo Fisher Scientific, Waltham, MA). The mixture was gently vortexed for 5 seconds and incubated for 10 minutes at room temperature. Plates were spun for 1 minute prior to luminescence measurements. Luminescent measurements were quantitated using a PerkinElmer EnVision™ plate reader.
˜100,000 compounds from various libraries at the ICCB-Longwood were screened in this manner in duplicate.
The fold change was the ratio of luminescence from a sample with inhibitor compared to that with DMSO. Thus, a higher number indicates higher inhibition.

T1 sequence (Q8NDF8 68-698 isoform Q8NDF8-5): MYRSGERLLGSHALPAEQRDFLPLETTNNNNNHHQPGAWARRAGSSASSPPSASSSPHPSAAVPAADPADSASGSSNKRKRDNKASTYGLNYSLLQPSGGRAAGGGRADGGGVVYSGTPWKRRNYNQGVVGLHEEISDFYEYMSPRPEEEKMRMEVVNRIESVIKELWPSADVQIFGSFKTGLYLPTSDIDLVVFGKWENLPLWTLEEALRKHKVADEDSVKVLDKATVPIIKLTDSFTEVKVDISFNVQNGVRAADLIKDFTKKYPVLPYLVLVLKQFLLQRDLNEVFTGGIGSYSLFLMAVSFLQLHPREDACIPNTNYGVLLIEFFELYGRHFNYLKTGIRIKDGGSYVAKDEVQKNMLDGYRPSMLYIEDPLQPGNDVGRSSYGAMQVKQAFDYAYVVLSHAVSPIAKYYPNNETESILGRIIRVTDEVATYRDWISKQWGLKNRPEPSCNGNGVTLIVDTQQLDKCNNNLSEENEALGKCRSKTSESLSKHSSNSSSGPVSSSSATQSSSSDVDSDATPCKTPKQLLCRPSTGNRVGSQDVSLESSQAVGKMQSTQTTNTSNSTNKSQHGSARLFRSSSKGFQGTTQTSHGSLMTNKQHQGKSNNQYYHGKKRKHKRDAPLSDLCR

SMILES	Fold-change determined at compound concentration 33 μM	Fold-change determined at compound concentration 100 μM
NC1CCN(c2nc3c(cc2F)c(=O)c(C(=O)O)cn3-c2ccc(F)cc2F)C1 (centres unmarked) [Entry 62, 7-(3-aminopyrrolidin-1-yl)-1-(2,4-difluorophenyl)-6-fluoro-4-oxo-1,4-dihydro-1,8-naphthyridine-3-carboxylic acid]	1.298	1.41
COc1cccc(CNC2=Nc3ccccc3NC23CCCCC3)c1 [Entry 63, N-[(3-methoxyphenyl)methyl]spiro[4H-quinoxaline-3,1′-cyclohexane]-2-amine]	1.113	1.417
O=C(CCCn1c(=O)c2cccn2c2ccc(Br)cc21)N1CCCC1 [Entry 65, 7-bromo-5-(4-oxo-4-pyrrolidin-1-ylbutyl)pyrrolo[1,2-a]quinoxalin-4-one]	1.23	1.394
CCCCN(CC)C(=O)CCCn1c(=O)c2cccn2c2ccccc21 [Entry 66, N-butyl-N-ethyl-4-(4-oxopyrrolo[1,2-a]quinoxalin-5-yl)butanamide]	1.083	1.229
COc1ccc(NC(=O)CCn2c(=O)c3cccn3c3ccccc32)c(OC)c1 [Entry 67, N-(2,4-dimethoxyphenyl)-3-(4-oxopyrrolo[1,2-a]quinoxalin-5-yl)propanamide]	1.122	1.238
CCN(CC)CCNC(=O)c1ccc(Cn2c(=O)c3cccn3c3cccnc32)cc1 [Entry 69, N-(2-(diethylamino)ethyl)-4-((6-oxopyrido[2,3-e]pyrrolo[1,2-a]pyrazin-5(6H)-yl)methyl)benzamide]	1.116	1.223
CN(C)CCNC(=O)c1ccc(Cn2c(=O)c3cccn3c3cccnc32)cc1 [Entry 70, N-[2-(dimethylamino)ethyl]-4-[(6-oxopyrido[2,3-e]pyrrolo[1,2-a]pyrazin-5(6H)-yl)methyl]benzamide]	1.103	1.206
CCn1c(SCC(=O)O)nc2c(=O)n(C)c(=O)n(C)c21 [Entry 77, 2-(9-ethyl-1,3-dimethyl-2,6-dioxopurin-8-yl)sulfanylacetic acid]	1.142	1.419
Cn1c(=O)c2nc(SCCC(=O)O)n(Cc3ccc(F)cc3)c2n(C)c1=O [Entry 78, 3-{[9-(4-fluorobenzyl)-1,3-dimethyl-2,6-dioxo-2,3,6,9-tetrahydro-1H-purin-8-yl]sulfanyl}propanoic acid]	1.05	1.26
Cn1c(=O)c2c(nc(Sc3nnc(NC(=O)c4ccccc4Br)s3)n2C)n(C)c1=O [Entry 81]	1.107	1.288
Cn1c(=O)c2nc(SCCC(=O)O)n(Cc3ccccc3)c2n(C)c1=O [Entry 82, 3-(9-benzyl-1,3-dimethyl-2,6-dioxopurin-8-yl)sulfanylpropanoic acid]	1.122	1.306
O=C(O)c1ccccc1C(=O)Nc1ccc(Br)c2cccnc12 [Entry 83, 2-[(5-bromoquinolin-8-yl)carbamoyl]benzoic acid]	1.041	1.203

The remaining lines, values ahead:

Fold-change determined at compound concentration 33 μM	Fold-change determined at compound concentration 100 μM	SMILES
1.076	1.364	CC(C)Cn1cc(NC(=O)NCc2ccc(Cl)cc2)c2ccccc2c1=O [Entry 58, 1-[(4-chlorophenyl)methyl]-3-[2-(2-methylpropyl)-1-oxoisoquinolin-4-yl]urea]
1.113	1.69	CCOc1ccccc1CNC(=O)Nc1cn(CC(C)C)c(=O)c2ccccc12 [Entry 59, 1-[(2-ethoxyphenyl)methyl]-3-[2-(2-methylpropyl)-1-oxoisoquinolin-4-yl]urea]
1.088	1.621	COc1cccc(CNC(=O)Nc2cn(CC(C)C)c(=O)c3ccccc23)c1 [Entry 60, 1-[(3-methoxyphenyl)methyl]-3-[2-(2-methylpropyl)-1-oxoisoquinolin-4-yl]urea]
1.164	1.507	COc1ccc(CNC(=O)Nc2cn(CC(C)C)c(=O)c3ccccc23)c(OC)c1 [Entry 60a, 1-[(2,4-dimethoxyphenyl)methyl]-3-[2-(2-methylpropyl)-1-oxoisoquinolin-4-yl]urea]
1.07	1.235	CCc1cccc(NC(=O)Nc2cn(C)c(=O)c3ccccc23)c1 [Entry 61, 1-(3-ethylphenyl)-3-(2-methyl-1-oxoisoquinolin-4-yl)urea]
1.173	1.531	CCCCn1c(=O)c2sccc2n2c(=S)[nH]nc12 [Entry 71, 4-butyl-1-thioxo-2,4-dihydrothieno[2,3-e][1,2,4]triazolo[4,3-a]pyrimidin-5(1H)-one]
1.099	1.256	CCCn1c(=O)c2cc(F)ccc2n2c(=S)[nH]nc12 [Entry 72, 7-fluoro-4-propyl-1-thioxo-2,4-dihydro[1,2,4]triazolo[4,3-a]quinazolin-5(1H)-one]
1.093	1.278	CC(C)Cn1c(=O)c2ccccc2n2c(=S)[nH]nc12 [Entry 73, 4-isobutyl-1-thioxo-2,4-dihydro[1,2,4]triazolo[4,3-a]quinazolin-5(1H)-one]
1.372	1.87	CC(C)CCn1c(=O)c2ccccc2n2c(=S)[nH]nc12 [Entry 74, 1-mercapto-4-(3-methylbutyl)[1,2,4]triazolo[4,3-a]quinazolin-5(4H)-one]
1.11	1.324	O=c1c2sccc2n2c(=S)[nH]nc2n1Cc1ccccc1 [Entry 75, 4-benzyl-1-thioxo-2,4-dihydrothieno[2,3-e][1,2,4]triazolo[4,3-a]pyrimidin-5(1H)-one]
1.7195	1.423	CCc1ccc(Cn2c(=O)c3sccc3n3c(=S)[nH]nc23)cc1 [Entry 76, 4-(4-ethylbenzyl)-1-thioxo-2,4-dihydrothieno[2,3-e][1,2,4]triazolo[4,3-a]pyrimidin-5(1H)-one]
1.164	1.447	Cn1c(=O)c2nc(SCC(=O)O)n(CCc3ccccc3)c2n(C)c1=O [Entry 79, 2-[1,3-dimethyl-2,6-dioxo-9-(2-phenylethyl)purin-8-yl]sulfanylacetic acid]
1.164	1.55	Cn1c(=O)c2nc(SCC(=O)O)n(Cc3ccccc3)c2n(C)c1=O [Entry 80, 2-(9-benzyl-1,3-dimethyl-2,6-dioxopurin-8-yl)sulfanylacetic acid]

From US12171755B2, “PAPD5 inhibitors and methods of use thereof” (Children's Medical Center Corporation, priority 2017, dated 2024)
